Read-outs that look alike come from different tables or passages of the source.
Legend:
MRSA 15903 = test: microbe, parasite or virus in culture; assay type: cell-based, Staphylococcus aureus; conditions: for MIC: S. aureus CI-15903
In short: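 Values are FIC indexes, summing each agent's MIC in combination divided by its MIC alone, for MRSA 15903. Interpretation: <0.5 clear re-sensitization, 0.5 to 4 marginal or none, >4 antagonistic.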

[1] = system: E. coli K-12 resistant wild type; assay type: cell-based, Escherichia coli; conditions: E. coli AG100 (w.t.)
S. aureus 15877 = test: Antibiotic MIC by microdilution with or without sub-MIC polymer; assay type: cell-based, Staphylococcus aureus
Procedure: MICs were determined by microdilution susceptibility testing in 96-well plates (by Nunc) using inocula of 10^5 bacteria per ml. Cell populations were evaluated by optical density measurements at 620 nm and were calibrated against a set of standards. Hundred (100) μl of a bacterial suspension were added to 100 μl of culture medium (control) or to 100 μl of culture medium containing various polymer concentrations in 2-fold serial dilutions. Inhibition of proliferation was determined by optical density measurements at 620 nm after an incubation period of 24 hours at 37° C.
MICs were determined by microdilution susceptibility testing in 96-well plates (Nunc) using inocula of 10^5 bacteria per ml. One hundred (100) μl of a bacterial suspension were added to 100 μl of culture medium (control) or to 100 μl of culture medium containing various antibiotic and C12(5-ene)KKNC12KNH2 (SEQ ID NO: 2) concentrations in 2-fold serial dilutions. Inhibition of proliferation was determined by optical density measurements at 620 nm after an incubation period of 24 hours at 37° C.

[2] = system: E. coli K-12 efflux knockout mutant; assay type: cell-based, Escherichia coli; conditions: E. coli AG100A (efflux−)
In short: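 Broth microdilution, inocula 10^5 bacteria/ml, 24 h at 37 °C. Growth read as OD620 against calibration standards.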

S. aureus 43300 = test: Antibiotic MIC by microdilution with or without sub-MIC polymer; assay type: cell-based, Staphylococcus aureus
E. coli 14182 = test: as above; assay type: cell-based, Escherichia coli
E. coli 16329 = assay type: cell-based, Escherichia coli
In short: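 Bacterial suspensions (100 μl) were added to 100 μl of culture medium carrying 2-fold serially diluted antibiotic together with a fraction of the polymer's MIC, or to plain medium as control. Plates were incubated 24 hours at 37° C, and proliferation was read at 620 nm against calibration standards. Starting inoculum was 10^5 bacteria per ml.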

S. maltophila 748 = test: Antibiotic MIC by microdilution with or without sub-MIC polymer; assay type: cell-based, Stenotrophomonas maltophila
[3] = polymer at ¼ of its MIC (Table 16)
[4] = polymer at ½ of its MIC (Table 16)
[5] = polymer at ⅓ of its MIC (Table 16)
[6] = the OAK at ¼ of its MIC (Table 17)
[7] = the OAK at ½ of its MIC (Table 17)
[8] = the OAK at ⅓ of its MIC (Table 17)
[9] = +¼ MIC (1.6 μM) C12(5-ene)KKNC12KNH2
[10] = +⅓ MIC (2.1 μM) C12(5-ene)KKNC12KNH2

For `CC1(C)S[C@@H]2[C@H](NC(=O)Cc3ccccc3)C(=O)N2[C@H]1C(=O)O` [Penicillin G, penicillin G], which “MIC, ½ + MIC OAK” value (MRSA 15903; MRSA 15903, with C12K(KNC10K)3NH2 (SEQ ID NO: 10) at ½ of its MIC) is on record?
The value was 4 to 16 µg/mL.

What about the “MIC, ⅓ + MIC OAK” value (MRSA 15903; MRSA 15903, with C12K(KNC10K)3NH2 (SEQ ID NO: 10) at ⅓ of its MIC) of the same compound?
The value was 64 µg/mL.

What about the MIC (MRSA 15903; +polymer (¼ MIC) C12(5-ene)KKNC12KNH2) of the same compound?
The MIC was 32 µg/mL.

What about the MIC (MRSA 15903; +polymer (½ MIC) C12(5-ene)KKNC12KNH2) of the same compound?
The MIC was 0.25 µg/mL.

What about the MIC (MRSA 15903; +polymer (⅓ MIC) C12(5-ene)KKNC12KNH2) of the same compound?
Its MIC is 4 µg/mL.

And the MIC (MRSA 15903; alone)?
The MIC was 64 µg/mL.

What about the “Antibiotic MIC, None” value ([1]; antibiotic alone (Table 16)) of the same compound?
The value was 32 µg/mL.

And the “Antibiotic MIC, None” value ([1]; antibiotic alone (Table 17))?
The value was 32 µg/mL.

And the “Antibiotic MIC in presence of C12K(NC8K)7NH2 (SEQ ID NO: 4), +¼ MIC” value (from here on “Antibiotic MIC … (SEQ ID NO: 4), +¼ MIC”) [1, 3]?
The value was 16 to 32 µg/mL.

And the “Antibiotic MIC in presence of C12K(NC8K)7NH2 (SEQ ID NO: 4), +½ MIC” value (shortened to “Antibiotic MIC … (SEQ ID NO: 4), +½ MIC”) [1, 4]?
The value was 8 µg/mL.

What about the “Antibiotic MIC in presence of C12K(NC8K)7NH2 (SEQ ID NO: 4), +⅓ MIC” value (“Antibiotic MIC … (SEQ ID NO: 4), +⅓ MIC” below) [1, 5] of the same compound?
Its value is 8 to 16 µg/mL.

And the “Antibiotic MIC in presence of the OAK, +¼ MIC” value [1, 6]?
The value was 16 µg/mL.

And the “Antibiotic MIC in presence of the OAK, +½ MIC” value [1, 7]?
Its value is 8 µg/mL.

And the “Antibiotic MIC in presence of the OAK, +⅓ MIC” value [1, 8]?
Its value is 16 µg/mL.

What about the “Antibiotic MIC” value (S. aureus 15877; [9]) of the same compound?
Its value is 8 µg/mL.

And the “Antibiotic MIC” value (S. aureus 15877; +½ MIC (3.12 μM) C12(5-ene)KKNC12KNH2)?
The value was 8 µg/mL.

What about the “Antibiotic MIC” value (S. aureus 15877; [10]) of the same compound?
The value was 8 µg/mL.

What about the “Antibiotic MIC” value (S. aureus 15877; no polymer (None), Table 8) of the same compound?
The value was 8 µg/mL.

And the “Antibiotic MIC, None” value ([2]; antibiotic alone (Table 16))?
Its value is 8 µg/mL.

What about the “Antibiotic MIC, None” value ([2]; antibiotic alone (Table 17)) of the same compound?
Its value is 8 µg/mL.

And the “Antibiotic MIC … (SEQ ID NO: 4), +¼ MIC” value [2, 3]?
The value was 8 µg/mL.

And the “Antibiotic MIC … (SEQ ID NO: 4), +½ MIC” value [2, 4]?
Its value is 4 µg/mL.

And the “Antibiotic MIC … (SEQ ID NO: 4), +⅓ MIC” value [2, 5]?
The value was 8 µg/mL.

And the “Antibiotic MIC in presence of the OAK, +¼ MIC” value [2, 6]?
The value was 4 to 8 µg/mL.

And the “Antibiotic MIC in presence of the OAK, +½ MIC” value [2, 7]?
The value was 4 µg/mL.

What about the “Antibiotic MIC in presence of the OAK, +⅓ MIC” value [2, 8] of the same compound?
Its value is 4 to 8 µg/mL.

What about the “Antibiotic MIC” value (S. aureus 43300; [9]) of the same compound?
Its value is 1 µg/mL.

What about the “Antibiotic MIC” value (S. aureus 43300; +¼ MIC (1.6 μM) C12K(KNC12K)2NH2) of the same compound?
Its value is 8 µg/mL.

What about the “Antibiotic MIC” value (S. aureus 43300; +¼ MIC (1.6 μM) C12KKNC12KNH2) of the same compound?
The value was 4 µg/mL.

What about the “Antibiotic MIC” value (S. aureus 43300; +¼ MIC (1.6 μM) C16(9-ene)KKNC12KNH2) of the same compound?
The value was 2 µg/mL.

What about the “Antibiotic MIC” value (S. aureus 43300; +½ MIC (3.12 μM) C12K(KNC12K)2NH2) of the same compound?
The value was 4 µg/mL.

And the “Antibiotic MIC” value (S. aureus 43300; +½ MIC (3.12 μM) C12KKNC12KNH2)?
Its value is 1 µg/mL.

And the “Antibiotic MIC” value (S. aureus 43300; +½ MIC (3.12 μM) C16(9-ene)KKNC12KNH2)?
The value was 0.25 µg/mL.

What about the “Antibiotic MIC” value (S. aureus 43300; [10]) of the same compound?
The value was 0.25 µg/mL.

And the “Antibiotic MIC” value (S. aureus 43300; +⅓ MIC (2.1 μM) C12K(KNC12K)2NH2)?
Its value is 8 µg/mL.

What about the “Antibiotic MIC” value (S. aureus 43300; +⅓ MIC (2.1 μM) C12KKNC12KNH2) of the same compound?
Its value is 2 to 4 µg/mL.

What about the “Antibiotic MIC” value (S. aureus 43300; +⅓ MIC (2.1 μM) C16(9-ene)KKNC12KNH2) of the same compound?
The value was 1 to 2 µg/mL.

What about the “Antibiotic MIC” value (E. coli 14182; +½ MIC C12K(NC8K)5NH2) of the same compound?
The value was over 512 µg/mL.

What about the “Antibiotic MIC, None” value (E. coli 14182; antibiotic alone (Table 15)) of the same compound?
Its value is over 512 µg/mL.

And the “Antibiotic MIC” value (E. coli 14182; no polymer (None), Table 14)?
Its value is over 512 µg/mL.

What about the “Antibiotic MIC … (SEQ ID NO: 4), +¼ MIC” value (E. coli 14182; polymer at ¼ of its MIC) of the same compound?
The value was over 512 µg/mL.

What about the “Antibiotic MIC … (SEQ ID NO: 4), +½ MIC” value (E. coli 14182; polymer at ½ of its MIC) of the same compound?
Its value is over 512 µg/mL.

And the “Antibiotic MIC … (SEQ ID NO: 4), +⅓ MIC” value (E. coli 14182; polymer at ⅓ of its MIC)?
Its value is over 512 µg/mL.

And the “Antibiotic MIC” value (E. coli 16329)?
Its value is 256 µg/mL.

What about the “Antibiotic MIC” value (E. coli 16329; E. coli 16329, no polymer (None), Table 10) of the same compound?
The value was 512 µg/mL.

And the “Antibiotic MIC” value (E. coli 16329; E. coli U-16329, +¼ MIC C12K(NC8K)5NH2)?
The value was 256 µg/mL.

What about the “Antibiotic MIC” value (E. coli 16329; E. coli U-16329, +½ MIC C12K(NC8K)5NH2) of the same compound?
Its value is 256 µg/mL.

What about the “Antibiotic MIC” value (E. coli 16329; E. coli U-16329, +⅓ MIC C12K(NC8K)5NH2) of the same compound?
The value was 256 µg/mL.

And the “Antibiotic MIC, None” value (E. coli 16329; E. coli U-16329, antibiotic alone (Table 15))?
The value was 256 µg/mL.

And the “Antibiotic MIC” value (E. coli 16329; E. coli U-16329, no polymer (None), Table 14)?
Its value is 256 µg/mL.

And the “Antibiotic MIC … (SEQ ID NO: 4), +¼ MIC” value (E. coli 16329; E. coli U-16329, polymer at ¼ of its MIC)?
The value was 256 µg/mL.

What about the “Antibiotic MIC … (SEQ ID NO: 4), +½ MIC” value (E. coli 16329; E. coli U-16329, polymer at ½ of its MIC) of the same compound?
The value was 128 to 256 µg/mL.

And the “Antibiotic MIC … (SEQ ID NO: 4), +⅓ MIC” value (E. coli 16329; E. coli U-16329, polymer at ⅓ of its MIC)?
Its value is 128 to 256 µg/mL.

And the “Antibiotic MIC” value (S. maltophila 748; +¼ MIC (1.6 μM) C12K(KNC12K)3NH2)?
The value was 512 µg/mL.

What about the “Antibiotic MIC” value (S. maltophila 748; +½ MIC (3.12 μM) C12K(KNC12K)3NH2) of the same compound?
Its value is 128 µg/mL.

And the “Antibiotic MIC” value (S. maltophila 748; +⅓ MIC (2.1 μM) C12K(KNC12K)3NH2)?
The value was 256 to 512 µg/mL.

And the “Antibiotic MIC” value (S. maltophila 748; no polymer (None), Table 13)?
Its value is 512 µg/mL.

— patent US20180153995A1, “USE OF ANTIMICROBIAL POLYMERS FOR RE-SENSITIZATION OF MICROORGANISMS UPON EMERGENCE OF RESISTANCE TO ANTI-MICROBIAL AGENTS” (Technion Research & Development Foundation Limited, priority 2008, published 2018)
